Measurements as given in patent US8859534B2, “2-carboxamide-7-piperazinyl-benzofuran derivatives” (AstraZeneca AB, priority 2009, dated 2014).

What was measured:
5-HT1A receptor = 5-HT1A receptor (Homo sapiens (Human), UniProt P08908); assay: 5-HT1A receptor competition binding assay (SPA, [3H]-8-OH-DPAT); conditions: membranes of CHO cells expressing 5-HT1A receptors; radioligand [3H]-8-OH-DPAT 0.15-0.2 nM
Excerpt: (§1) Assays that were used to measure affinity of the compounds of the present invention for 5-HT1A and 5-HT1B receptors are described in J. Recept Signal Transduct. Res. 22:483-495 (2002) and Naunyn-Schmiedeberg's Arch Pharmacol. 356:328-334 (1997) and incorporated by reference herein. These assays were be used with some modifications:
(§2) For the binding assay stably transfected chinese hamster ovary (CHO) cell lines expressing 5-HT1A receptors or 5-HT1B receptors were harvested by centrifugation at 300×g for 10 min and resuspended in 10 mM Tris-HCl, 5 mM EDTA at pH 7.4. The cells were pooled, recentrifuged and resuspended before homogenisation using a Dounce homogeniser (“type B”). Cell membranes were centrifuged at 48 000×g for 10 min and then resuspended in harvesting buffer using an Ultra-Turrax T8 (IKA Labortechnik, Germany), aliquots were stored frozen in −70° C.
Frozen membrane preparations were thawed, homogenized with an Ultra-Turrax and mixed with SPA beads (YSI coated WGA, GE Healthcare/Amersham, Buckinghamshire, UK) in assay buffer containing 50 mM Tris-Base, 4 mM MgCl2, 4 mM CaCl2 (only 5-HT1B), 1 mM EDTA, and adjusted to pH 7.4 with HCl. […] The binding assays were performed in 384-well plates in a final volume of 90 μL/well with the following additions: 9 μL binding buffer; 1 μL compound/DMSO/nonspecific; 20 μL radioligand; and 60 μL beads/membrane mixture. Non-specific binding was defined by using 10 μM WAY100635 for 5-HT1A and 10 μM Methiothepin for 5-HT1B. The assay plates were incubated for 4 hours where after the plates are counted in a Wallac 1450 Microbeta Trilux counter (PerkinElmer LifeScience, US) or similar. Data from the experiments were analyzed using a four parameter logistic equation as follows: Y=Bottom+(Top-Bottom)/1+10^(LogEC50-X)nH.

5-HT1B receptor = 5-HT1B receptor (Homo sapiens (Human), UniProt P28222); assay: 5-HT1B receptor competition binding assay (SPA, [3H]-GR125743); conditions: membranes of CHO cells expressing 5-HT1B receptors; radioligand [3H]-GR125743 0.15-0.2 nM
Excerpt: as §1, §2
Frozen membrane preparations were thawed, homogenized with an Ultra-Turrax and mixed with SPA beads (YSI coated WGA, GE Healthcare/Amersham, Buckinghamshire, UK) in assay buffer containing 50 mM Tris-Base, 4 mM MgCl2, 4 mM CaCl2 (only 5-HT1B), 1 mM EDTA, and adjusted to pH 7.4 with HCl. The beads/membrane solution, final concentration 100 pM receptors for 5-HT1A, 300 pM receptors for 5-HT1B and 0.5 mg SPA beads/well, was pre-incubated in room temperature with stirring for 30-60 min. […] Five (log interval, 10 μM to 1 nM, final concentration) or ten serial dilutions (½-log interval, 10 μM to 0.32 nM, final concentration) of compounds were prepared in DMSO from 10 mM stock solutions. The binding assays were performed in 384-well plates in a final volume of 90 μL/well with the following additions: 9 μL binding buffer; 1 μL compound/DMSO/nonspecific; 20 μL radioligand; and 60 μL beads/membrane mixture. Non-specific binding was defined by using 10 μM WAY100635 for 5-HT1A and 10 μM Methiothepin for 5-HT1B. The assay plates were incubated for 4 hours where after the plates are counted in a Wallac 1450 Microbeta Trilux counter (PerkinElmer LifeScience, US) or similar. Data from the experiments were analyzed using a four parameter logistic equation as follows: Y=Bottom+(Top-Bottom)/1+10^(LogEC50-X)nH.
• Jerning E., Rosqvist S., Mohell N. (2002) NAD-299 antagonises 5-HT-stimulated and Spiperone-inhibited [^35S]GTPγS binding in cloned 5-HT1A receptors. J Recept Signal Transduct Res 22:483-495. • Doménech T., Beleta J., Palacios J. M. (1997) Characterization of human serotonin 1D and 1B receptors using [^3H]-GR-125743, a novel radiolabelled serotonin 5HT1D/1B receptor antagonist. Naunyn-Schmiedeberg's Arch Pharmacol 356:328-334.

5-HT1A receptor, sequence (P08908 whole entry): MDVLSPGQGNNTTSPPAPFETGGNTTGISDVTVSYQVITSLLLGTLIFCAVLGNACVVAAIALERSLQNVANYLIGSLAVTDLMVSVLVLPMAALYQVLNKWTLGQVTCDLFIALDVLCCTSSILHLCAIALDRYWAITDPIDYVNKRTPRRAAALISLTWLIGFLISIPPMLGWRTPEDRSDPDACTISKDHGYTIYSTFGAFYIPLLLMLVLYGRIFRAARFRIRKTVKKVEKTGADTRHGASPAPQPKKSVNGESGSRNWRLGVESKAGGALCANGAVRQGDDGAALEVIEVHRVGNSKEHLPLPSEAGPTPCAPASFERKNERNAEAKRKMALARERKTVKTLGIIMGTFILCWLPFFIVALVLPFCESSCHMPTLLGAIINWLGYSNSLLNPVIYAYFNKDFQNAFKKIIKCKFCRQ
5-HT1B receptor, sequence (P28222 whole entry): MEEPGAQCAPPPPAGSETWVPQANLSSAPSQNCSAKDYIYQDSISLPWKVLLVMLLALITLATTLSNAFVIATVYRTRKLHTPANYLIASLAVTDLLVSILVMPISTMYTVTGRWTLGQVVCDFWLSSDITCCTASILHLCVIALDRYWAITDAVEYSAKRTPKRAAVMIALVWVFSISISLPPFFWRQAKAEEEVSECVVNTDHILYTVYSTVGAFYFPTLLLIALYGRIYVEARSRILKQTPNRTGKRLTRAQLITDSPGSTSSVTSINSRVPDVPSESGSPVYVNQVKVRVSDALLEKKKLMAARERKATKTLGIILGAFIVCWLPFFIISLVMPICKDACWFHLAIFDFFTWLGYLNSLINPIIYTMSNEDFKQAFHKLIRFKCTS

For `CC(=O)c1ccc(CCN2CCN(c3cccc4cc(C(=O)N(C)C)oc34)CC2)nc1` [Example 43, 7-(4-(2-(5-Acetylpyridin-2-yl)ethyl)piperazin-1-yl)-N,N-dimethylbenzofuran-2-carboxamide], which Ki (5-HT1A receptor) is on record?
The Ki was 0.33 nM.

And the Ki (5-HT1B receptor)?
Its Ki is 2 nM.
